Experimental data as given in patent US20260224527A1, “USES OF ANTI-PSYCHOTIC AGENTS” (LB PHARMACEUTICALS INC., priority 2023, published 2026).

Key:
[1] = tested on: PCP-treated rats; test: Social interaction (sniffing index, SI) assay in scPCP model; format: in vivo, rat
Protocol: (§1) Differences in discrimination index ((time spent exploring novel−time spent exploring familiar)/total exploration time) are depicted. scPCP rats treated with risperidone (Risp) served as a positive control. […] Rats treated with cariprazine (Cari) served as a positive control.
The sniffing component of the SI assay was carried out as described in (J. C. Neil, S. Barnes, S. Cook, B. Grayson, N. F. Iris, S. L. McLean, S. Snigdha, L. Rajagopa, and M. K. Harte, “Animal models of cognitive dysfunction and negative symptoms of schizophrenia: focus on NMDA receptor antagonism”, Pharmacol. Ther., 2010, 128, 419-423) in groups of 12 rats.

[2] = tested on: PCP-treated rats; test: Novel Object Recognition (NOR) assay in scPCP model; format: in vivo, rat; conditions: for effect on Discrimination Index (DI): 3 hr post-dose
Protocol: as §1
Efficacy of LB-102, LB-103, and LB-104 at different doses was evaluated in rats in a Novel Object Recognition (NOR) assay, a well-established model recapitulating cognitive and negative aspects of the PANSS scale of schizophrenia. In this assay, animals were treated for several weeks with a low dose of phencyclidine (PCP) to impair the ability of the rat to discern between novel and familiar objects. Typically rats, like humans, would spend more time exploring a novel object than a familiar one.
In this NOR study the efficacies of LB-102, LB-103, and LB-104 were compared to known antipsychotic risperidone for its ability to restore normal differentiation between novel and familiar object exploration in PCP-treated rats. Cognitive measurements were taken at 3 hr post-dose for LB-102, LB-103, and LB-104 and 30 min for risperidone. The endpoint of this study was the Discrimination Index (DI), a normalized ratio of time spent exploring a novel object compared to a familiar one.

[3] = molecular target: T1, D4 receptor subtype (Homo sapiens, UniProt P21917); conditions: cited from earlier work
T1 sequence (P21917 1-419): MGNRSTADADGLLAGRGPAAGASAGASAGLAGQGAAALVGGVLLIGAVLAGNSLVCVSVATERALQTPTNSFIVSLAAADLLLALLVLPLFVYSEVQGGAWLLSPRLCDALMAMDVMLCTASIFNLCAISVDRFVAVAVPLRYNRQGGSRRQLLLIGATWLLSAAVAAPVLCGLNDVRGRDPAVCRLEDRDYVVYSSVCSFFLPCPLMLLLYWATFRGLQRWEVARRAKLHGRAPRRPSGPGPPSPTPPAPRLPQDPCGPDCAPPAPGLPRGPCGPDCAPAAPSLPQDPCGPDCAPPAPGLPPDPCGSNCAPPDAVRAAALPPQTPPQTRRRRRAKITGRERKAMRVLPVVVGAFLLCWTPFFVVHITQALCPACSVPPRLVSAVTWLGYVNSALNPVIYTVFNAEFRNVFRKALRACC

[4] = tested on: serotonin receptor subtypes; conditions: cited from earlier work
[5] = molecular target: 5-HT2a receptor (Homo sapiens, UniProt P28223); conditions: compared to other antipsychotics; cited from earlier work
Chain of 5-HT2a receptor (P28223 whole entry): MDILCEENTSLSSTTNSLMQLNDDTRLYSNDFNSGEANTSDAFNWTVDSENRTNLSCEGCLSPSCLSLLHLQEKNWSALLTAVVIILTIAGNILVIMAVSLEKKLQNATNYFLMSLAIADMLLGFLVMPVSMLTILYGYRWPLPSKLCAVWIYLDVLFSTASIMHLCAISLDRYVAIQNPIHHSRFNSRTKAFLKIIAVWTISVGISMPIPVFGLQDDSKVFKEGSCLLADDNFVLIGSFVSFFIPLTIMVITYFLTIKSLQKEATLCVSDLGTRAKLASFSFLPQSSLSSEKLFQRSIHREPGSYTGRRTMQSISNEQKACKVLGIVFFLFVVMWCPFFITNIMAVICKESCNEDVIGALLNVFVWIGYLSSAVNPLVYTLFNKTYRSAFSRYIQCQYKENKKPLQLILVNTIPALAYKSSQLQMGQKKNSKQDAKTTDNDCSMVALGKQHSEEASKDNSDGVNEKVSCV

[6] = molecular target: D5 receptor subtype (Homo sapiens, UniProt P21918); conditions: cited from earlier work
Chain of D5 receptor subtype (P21918 whole entry): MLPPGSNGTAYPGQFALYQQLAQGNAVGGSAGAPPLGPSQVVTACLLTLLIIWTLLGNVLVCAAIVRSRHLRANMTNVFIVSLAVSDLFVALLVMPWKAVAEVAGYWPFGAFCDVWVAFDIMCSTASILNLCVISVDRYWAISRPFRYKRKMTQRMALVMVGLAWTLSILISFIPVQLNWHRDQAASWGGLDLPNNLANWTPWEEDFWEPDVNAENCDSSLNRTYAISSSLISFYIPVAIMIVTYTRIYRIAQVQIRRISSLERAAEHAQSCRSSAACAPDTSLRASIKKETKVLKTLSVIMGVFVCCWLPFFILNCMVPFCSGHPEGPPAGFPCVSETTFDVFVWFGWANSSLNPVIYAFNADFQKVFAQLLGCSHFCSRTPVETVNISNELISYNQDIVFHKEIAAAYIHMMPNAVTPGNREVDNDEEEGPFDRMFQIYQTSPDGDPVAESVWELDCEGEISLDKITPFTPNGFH

[7] = 2014 study, rank among 30 psychiatric drugs; cited from earlier work
[8] = tested on: alpha-adrenergic receptor subtypes; conditions: cited from earlier work
[9] = tested on: histamine receptor subtypes; conditions: cited from earlier work
[10] = molecular target: D1 receptor subtype (Homo sapiens, UniProt P21728); conditions: cited from earlier work
Chain of D1 receptor subtype (P21728 whole entry): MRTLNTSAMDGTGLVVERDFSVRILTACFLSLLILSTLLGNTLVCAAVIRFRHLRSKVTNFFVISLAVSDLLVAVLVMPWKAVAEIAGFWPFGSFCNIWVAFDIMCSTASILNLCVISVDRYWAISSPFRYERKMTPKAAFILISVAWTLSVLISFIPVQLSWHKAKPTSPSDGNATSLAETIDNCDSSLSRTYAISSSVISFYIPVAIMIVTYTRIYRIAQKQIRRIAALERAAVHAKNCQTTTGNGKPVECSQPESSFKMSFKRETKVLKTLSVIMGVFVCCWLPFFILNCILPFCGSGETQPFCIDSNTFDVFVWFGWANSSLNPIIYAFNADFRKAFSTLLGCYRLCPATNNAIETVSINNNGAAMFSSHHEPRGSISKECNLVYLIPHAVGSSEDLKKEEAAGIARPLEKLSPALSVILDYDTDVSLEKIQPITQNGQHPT

[11] = tested on: sigma sites; conditions: cited from earlier work
[12] = tested on: muscarinic receptors; conditions: cited from earlier work

## CCN1CCCC1CNC(=O)c1cc(S(=O)(=O)CC)c(NC)cc1OC (racemic) [LB-102]
[1]; 5 mg (printed)
  effect on sniffing index (social interaction): significant effect
[1]; 45 mg/kg
  effect on sniffing index (social interaction): significant effect
[2]
  NOR result compared to LB-104: comparable results
[2]; 15 mg/kg
  effect on Discrimination Index (DI): significant improvement
[2]; 45 mg/kg
  effect on Discrimination Index (DI): significant improvement

## CCN1CCCC1CNC(=O)c1cc(S(=O)(=O)CC)c(N)cc1OC (stereo not drawn) [Amisulpride, 4-amino-N-(((1-ethyl-2-pyrrolidinyl)methyl)-5-(ethylsulfonyl))-2-methoxybenzamide]
[3]
  affinity: without any affinity
[4]
  affinity: low affinity
[5]
  activity at the 5-HT2a receptor: not noted to have any activity
[6]
  affinity: without any affinity
[7]
  passive diffusion across a PAMPA membrane (Pe): lowest of 30 psychiatric drugs tested
[8]
  affinity: low affinity
[9]
  affinity: low affinity
[10]
  affinity: without any affinity
[11]
  affinity: low affinity
[12]
  affinity: low affinity

## CCN1CCC[C@@H]1CNC(=O)c1cc(S(=O)(=O)CC)c(NC)cc1OC [LB-104]
[1]; 45 mg/kg
  effect on sniffing index (social interaction): significant effect
[2]; 15 mg/kg
  effect on Discrimination Index (DI): significant improvement
[2]; 45 mg/kg
  effect on Discrimination Index (DI): significant improvement
